One block for each molecule: values may come before it.
How the values were obtained:
[1] = target: DNA repair protein RAD51 homolog 1 (Homo sapiens, UniProt Q06609); assay: Binding affinity to of humanised RAD51 C-terminal ATPase domain (with deletion of L2 loop residues 288 to 314) from Pyrococcus furiosus expressed in Escherichia coli by ITC method
[2] = target: Proto-oncogene tyrosine-protein kinase receptor Ret (Homo sapiens) (UniProt P07949); assay: Inhibition of human recombinant RET assessed as residual activity at 100 uM by microfluidics separation based assay
[3] = Inhibition of Streptococcus pneumoniae NAD+-dependent DNA ligase A
[4] = Inhibition of Haemophilus influenzae NAD+-dependent DNA ligase A
Collagenase 3 = Collagenase 3 (Homo sapiens, UniProt P45452); assay: Inhibition of human recombinant MMP13 using thiopeptide as chromogenic substrate by colorimetric assay
Coagulation factor XI = Coagulation factor XI (Homo sapiens, UniProt P03951); assay: Inhibition of human factor 11a using pyroGlu-Pro-Arg-pNA.HCl substrate
[5] = Inhibition of DNA gyrase B (unknown origin)

DNA repair protein RAD51 homolog 1, sequence (Q06609 2-339 limits assumed): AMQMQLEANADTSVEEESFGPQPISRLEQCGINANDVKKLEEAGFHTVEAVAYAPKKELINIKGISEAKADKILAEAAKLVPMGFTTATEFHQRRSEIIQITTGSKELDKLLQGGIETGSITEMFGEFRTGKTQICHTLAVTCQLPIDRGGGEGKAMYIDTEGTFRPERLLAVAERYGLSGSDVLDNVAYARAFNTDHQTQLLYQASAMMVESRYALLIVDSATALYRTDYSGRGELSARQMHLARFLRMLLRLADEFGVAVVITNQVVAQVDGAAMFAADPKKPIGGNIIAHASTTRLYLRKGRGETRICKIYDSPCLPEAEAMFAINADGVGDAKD
Coagulation factor XI, sequence (P03951 19-387 limits assumed): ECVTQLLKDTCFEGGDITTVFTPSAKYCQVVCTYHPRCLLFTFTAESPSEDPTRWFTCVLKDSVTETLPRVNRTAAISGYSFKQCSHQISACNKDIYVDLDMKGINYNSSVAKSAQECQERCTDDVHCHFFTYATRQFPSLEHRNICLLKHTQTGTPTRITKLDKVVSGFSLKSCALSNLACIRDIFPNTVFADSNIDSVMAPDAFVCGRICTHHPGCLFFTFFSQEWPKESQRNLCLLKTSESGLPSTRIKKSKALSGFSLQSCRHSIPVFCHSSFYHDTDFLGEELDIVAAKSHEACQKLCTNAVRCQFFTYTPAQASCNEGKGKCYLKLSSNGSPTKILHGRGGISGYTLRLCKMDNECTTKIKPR
Coagulation factor XI, sequence (P03951 388-625 limits assumed): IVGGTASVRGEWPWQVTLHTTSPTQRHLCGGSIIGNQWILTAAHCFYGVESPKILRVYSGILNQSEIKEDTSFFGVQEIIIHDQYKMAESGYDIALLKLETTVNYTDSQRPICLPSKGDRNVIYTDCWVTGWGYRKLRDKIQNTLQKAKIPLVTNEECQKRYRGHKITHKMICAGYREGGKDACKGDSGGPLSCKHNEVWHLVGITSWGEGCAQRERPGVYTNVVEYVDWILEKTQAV
Proto-oncogene tyrosine-protein kinase receptor Ret (Homo sapiens), sequence (P07949 whole entry): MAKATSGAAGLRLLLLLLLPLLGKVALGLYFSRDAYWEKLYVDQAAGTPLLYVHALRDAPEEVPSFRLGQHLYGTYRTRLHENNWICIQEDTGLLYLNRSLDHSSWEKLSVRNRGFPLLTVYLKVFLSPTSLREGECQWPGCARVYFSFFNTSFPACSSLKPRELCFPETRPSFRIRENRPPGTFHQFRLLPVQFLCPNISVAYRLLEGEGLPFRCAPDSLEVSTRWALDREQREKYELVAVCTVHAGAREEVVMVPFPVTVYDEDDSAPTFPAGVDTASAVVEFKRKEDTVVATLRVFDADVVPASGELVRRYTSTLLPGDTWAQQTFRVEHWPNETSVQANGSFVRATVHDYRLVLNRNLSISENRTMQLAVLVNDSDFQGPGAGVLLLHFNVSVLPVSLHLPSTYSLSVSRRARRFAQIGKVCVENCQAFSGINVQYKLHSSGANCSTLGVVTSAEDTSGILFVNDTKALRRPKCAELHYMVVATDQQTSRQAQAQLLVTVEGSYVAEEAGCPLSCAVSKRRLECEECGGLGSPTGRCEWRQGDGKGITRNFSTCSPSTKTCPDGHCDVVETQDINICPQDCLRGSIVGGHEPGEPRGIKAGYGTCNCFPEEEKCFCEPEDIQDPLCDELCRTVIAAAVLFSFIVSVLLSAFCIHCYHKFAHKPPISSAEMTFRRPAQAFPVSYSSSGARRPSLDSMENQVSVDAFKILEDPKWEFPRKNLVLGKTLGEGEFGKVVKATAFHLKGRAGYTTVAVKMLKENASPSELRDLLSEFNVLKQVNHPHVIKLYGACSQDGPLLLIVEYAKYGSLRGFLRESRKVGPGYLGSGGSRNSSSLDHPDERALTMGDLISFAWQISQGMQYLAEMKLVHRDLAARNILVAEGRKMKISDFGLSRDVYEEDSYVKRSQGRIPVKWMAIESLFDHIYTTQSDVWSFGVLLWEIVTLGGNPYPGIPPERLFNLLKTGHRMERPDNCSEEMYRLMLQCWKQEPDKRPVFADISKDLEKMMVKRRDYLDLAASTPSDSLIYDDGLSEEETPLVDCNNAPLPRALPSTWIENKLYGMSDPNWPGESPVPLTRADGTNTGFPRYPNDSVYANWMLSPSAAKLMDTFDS

Kd [1]: 1300 nM
SMILES: O=S(=O)(NCCc1c[nH]c2ccccc12)c1cc(Br)c(Cl)s1

Activity [2]: 28%
SMILES: Brc1ccc2c(c1)ncn2-c1ccccc1

IC50 [3]: > 500000 nM | IC50 [4]: > 500000 nM
SMILES: Cc1ccc2cc(C(N)=O)cc(O)c2n1

Kd [1]: 570000 nM
SMILES: COC(=O)[C@@H](N)Cc1c[nH]c2ccccc12 [TRYPTOPHAN METHYL ESTER]

IC50 (Collagenase 3): 11 nM
SMILES: COc1cccc(CNC(=O)C#Cc2cn(Cc3ccc(C(=O)O)cc3)c(=O)[nH]c2=O)c1

IC50 [3]: 100 nM | IC50 [4]: 100 nM
SMILES: CC(C)(C)c1nc(-c2ccc[nH]2)c2cc(C(N)=O)c(N)nc2n1

Ki (Coagulation factor XI): 0.5 nM
SMILES: O=C(N[C@@H](Cc1ccccc1)C(=O)NCc1cc2cc(Cl)ccc2[nH]c1=O)c1ccc2[nH]c(=O)cc(O)c2c1

IC50 [5]: 160 nM
SMILES: Cc1cc(-c2cc(NC(=O)c3ccc(C(=O)O)cc3C)[nH]n2)cc(C(F)(F)F)c1
